Measurements reported in patent US20230133209A1, “CELL CLASSIFIER CIRCUITS AND METHODS OF USE THEREOF” (Eidgenössische Technische Hochschule Zürich, priority 2020, published 2023).

Tested on: HepG2-LC tumor-bearing mice
Test: Antitumor efficacy in orthotopic HepG2 xenograft tumor model (bioluminescence tumor load, score sheet)
Assay type: in vivo, mouse
Description: Accordingly, this tumor-targeting program was evaluated in a pilot experiment in the context of orthotopic xenograft tumor model employing HepG2 cells in NSG mice. For the purpose of tumor establishment and tracking, HepG2 cells were stably modified with a lentiviral vector encoding an mCitrine fluorescent protein and firefly luciferase gene, and sorted for homogenous mCitrine expression. The tumors were established by splenic injection of 1M HepG2-LC cells and subsequent spleen dissection.
To gauge antitumor efficacy in vivo, AAV-DJ-HCC.V1-HSV-TK was delivered to HepG2 tumor bearing mice in two consecutive injections, three days apart. The four experimental groups (n=2 in this pilot) included the AAV-DJ-HCC.V1-HSV-TK in combination with GCV regimen (treatment arm), the same vector alone without GCV, sham injection supplemented with GCV regimen, and a sham PBS injection and no GCV.
Next, DJ-pseudotyped AAV vectors harboring the circuit were delivered systemically to HepG2-LC tumor-bearing mice (FIG. 7A). […]
Xenograft mouse liver mouse model: All animal procedures were performed in accordance with the Swiss federal law and institutional guidelines of Eidgenössische Technische Hochschule (ETH) Zurich, and approved by the animal ethics committee of canton Basel-Stadt. […] The tumor growth in mice was monitored by bioluminescence imaging 2-3 times per week (PhotonIMAGER RT, Biospace Lab). […]

## Nc1nc(O)c2ncn(COC(CO)CO)c2n1 [GCV, ganciclovir]
n=4 per arm, sham injection + GCV
  tumor load over time (bioluminescence): exponential tumor load increase over time
pilot, n=2, sham injection supplemented with GCV regimen
  antitumor activity (tumor load, bioluminescence): absent
